Reference: patent publication US20020013372A1, “Pharmacophore models for the identification of the CYP2D6 inhibitory potency of selective serotonin reuptake inhibitors” (priority 2000, published 2002)
Several values for one entry are separate records, joined by “and”; a condition that tells them apart may be missing. Equal entries are not always repeated. Where two headings read alike, the source gives them in different places.

How the values were obtained:
CYP2D6 [1] = molecular target: T1, CYP2D6 (Homo sapiens, UniProt P10635); conditions: cited from earlier work
T1 sequence (P10635 whole entry): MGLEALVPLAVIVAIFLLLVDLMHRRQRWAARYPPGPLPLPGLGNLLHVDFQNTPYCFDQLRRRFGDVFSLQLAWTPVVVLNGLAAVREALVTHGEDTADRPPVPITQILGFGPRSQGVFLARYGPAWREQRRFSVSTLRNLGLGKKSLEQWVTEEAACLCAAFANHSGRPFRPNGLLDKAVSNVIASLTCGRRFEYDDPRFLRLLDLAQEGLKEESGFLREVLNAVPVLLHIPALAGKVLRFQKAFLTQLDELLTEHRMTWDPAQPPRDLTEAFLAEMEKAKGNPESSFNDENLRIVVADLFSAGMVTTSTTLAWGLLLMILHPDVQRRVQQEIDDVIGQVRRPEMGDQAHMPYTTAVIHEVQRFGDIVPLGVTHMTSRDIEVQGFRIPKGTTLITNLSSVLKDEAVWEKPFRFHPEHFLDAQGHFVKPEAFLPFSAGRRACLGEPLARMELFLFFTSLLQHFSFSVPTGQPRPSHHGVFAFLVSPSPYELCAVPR

CYP2D6 [2] = molecular target: T1, CYP2D6; experiment: In vitro inhibition of CYP2D6, observed Ki (apparent) values from the literature
Description: Many SSRI's are known to be inhibitors of cytochrome P450 (CYP), including CYP2D6 mediated metabolic pathways in vivo and in vitro (Belpair et al., Eur. J Clin. Pharmacol., 54: 261-264, 1998; Crewe et al., Br. J. Clin. Pharmacol., 34: 262-265, 1992; Otton et al, Clin. Pharmacol. Ther., 53: 401-409, 1993; Skjelbo et al., Br. J. Clin. Pharmacol., 34: 256-261, 1992; Stevens et al., J. Pharmacol. Exp. Ther., 266: 964-971, 1993). […] As CYP2D6 is of major concern because of its polymorphic nature (Brosen, Ther. Drug Monitoring, 18: 393-396, 1996), the ability to predict whether a drug will interact with this CYP represents a serious advance in the pharmaceutical arts. The potential for CYP2D6 inhibition in vivo can be predicted reliably using systems such as human liver microsomes and recombinant enzymes, along with a know substrate probe for CYP2D6. By generating a K1 (apparent) value and knowledge of the plasma concentration of the drug, it is possible to reliably predict the likelihood of drug-drug interactions in vivo (Ring et al., J. Pharmacol. Exp. Ther., 275: 1131-1135, 1995).
Present technologies have centered around the use of in vitro testing using human liver microsomes or recombinant CYPs and a known catalytic probe for CYP2D6 such as bufuralol. However, the possible volume of in vitro studies is often limited by equipment and materials cost, incubation volume and the rate of analytical determination. […] Generating this in vitro parameter appears to be dependent on the substrate probe used as well as other experimental variables.

[3] = read-out: observed K1 (apparent), training set of 14 amphetamine compounds, Wu et al., Biochem. Pharmacol. 53: 1605-1612 (1997)
[4] = read-out: Observed K1 (apparent), individual literature values, source per footnote b-l of Table I

Compound	Ki (CYP2D6 [1]; [3])	Ki (CYP2D6 [2])	Ki (CYP2D6 [1]; [4])
COc1cc(OC)c(CC(C)N)c(OC)c1 (stereo not drawn) [(d,l)-2,4,6-trimethoxyamphetamine]	33 µM	–	–
CC(N)Cc1ccc(O)cc1 (single isomer, unassigned; (+)) [(+)-4-hydroxyamphetamine]	195 µM	–	–
CN[C@H]1CC[C@@H](c2ccc(Cl)c(Cl)c2)c2ccccc21 [Sertraline]	–	6.52 µM	–
COc1cc(CC(C)N)cc(OC)c1OC (stereo not drawn) [(d,l)-3,4,5-trimethoxyamphetamine]	128 µM	–	–
C[C@H](N)C(=O)c1ccccc1 [(d,l)-cathinone]	340 µM	–	–
COc1cc(CC(C)N)cc2c1OCO2 (stereo not drawn) [(d,l)-3-methoxy-4,5-methylenedioxyamphetamine]	2.2 µM	–	–
CC(N)Cc1ccccc1 (single isomer, unassigned; (+)) [(+)-amphetamine]	26.5 µM	–	–
CN(C)CCCC1(c2ccc(F)cc2)OCc2cc(C#N)ccc21 (stereo not drawn) [Citalopram]	–	10.4 µM	5.1 µM and 19 µM and 7 µM
COc1ccc(CC(C)N)cc1 (stereo not drawn) [(d,l)-4-methoxyamphetamine]	24 µM	–	–
CNCCCC1(c2ccc(F)cc2)OCc2cc(C#N)ccc21 (stereo not drawn) [Desmethylcitalopram]	–	3.65 µM	1.3 µM and 6 µM
CNC(C)Cc1ccc(O)cc1 (stereo not drawn) [(d,l)-4-hydroxymethamphetamine]	60 µM	–	–
CC(N)Cc1ccc2c(c1)OCO2 (stereo not drawn) [(d,l)-3,4-methylenedioxyamphetamine]	1.8 µM	–	–
COc1cc2c(cc1CC(C)N)OCO2 (stereo not drawn) [(d,l)-2-methoxy-4,5-methylenedioxyamphetamine]	0.17 µM	–	–
COc1ccccc1CC(C)N (stereo not drawn) [(d,l)-2-methoxyamphetamine]	11.5 µM	–	–
NCCC(Oc1ccc(C(F)(F)F)cc1)c1ccccc1 (stereo not drawn) [Norfluoxetine]	–	1.07 µM	–
(+)-methamphetamine	25 µM	–	–
CNC(C)Cc1ccc2c(c1)OCO2 (stereo not drawn) [(d,l)-3,4-methylenedioxymethamphetamine]	0.6 µM	–	–
COc1cccc(CC(C)N)c1 (stereo not drawn) [(d,l)-3-methoxyamphetamine]	17.5 µM	–	–
N[C@H]1CC[C@@H](c2ccc(Cl)c(Cl)c2)c2ccccc21 [Desmethylsertraline]	–	–	16 µM
